We go through 26 compounds from US20140045890A1, “NOVEL COMPOUNDS” (SYNGENTA PARTICIPATIONS AG, priority 2011, published 2014).

Values joined by “and” are separate entries in the source; they are usually repeats but may differ in a detail not shown here. Equal entries are not always repeated.

As usually defined, the melting point is the temperature of the solid-liquid transition.

In one series the test system is Phytophthora infestans. Description: whole plant or invertebrate. Particulars: in Solanum lycopersicum, foliar, read-out: inhibit fungal infestation (percent disease control compared to untreated). Format: in vivo.
For series [1], the system named is Blumeria qraminis f. sp. tritici (Erysiphe qraminis f. sp. tritici). Description: Blumeria graminis f. sp. tritici / wheat / leaf disc preventative (powdery mildew on wheat). To be noted: foliar, wheat leaf segments cv. Kanzler, inoculated 1 day after application, assessed 6-8 days after application, read-out: inhibit fungal infestation (percent disease control compared to untreated). Format: in vivo.

The test system of a further series is Pythium ultimum. Description: Pythium ultimum / liquid culture (seedling damping off). Particulars: Globisporangium ultimum, liquid culture in PDB, 24° C., 2-3 days after application, read-out: inhibit fungal infestation (inhibition of growth determined photometrically). Format: cell-based.
Another series concerns Plasmopara viticola. Description: Plasmopara viticola / grape / leaf disc preventative. Format: in vivo. Particulars: foliar, grape vine leaf disks, inoculated 1 day after application, assessed 6-8 days after application, read-out: inhibit fungal infestation (percent disease control compared to untreated).
Series [2] deals with Phaeosphaeria nodorum (Septoria nodorum). Description: Phaeosphaeria nodorum (Septoria nodorum) / wheat / leaf disc preventative (glume blotch). Format: in vivo. Particulars: Parastagonospora nodorum, foliar, wheat leaf segments cv. Kanzler, inoculated 2 days after application, assessed 5-7 days after application, read-out: inhibit fungal infestation (percent disease control compared to untreated).

Turning to `C#Cc1cnc2ccc(OC(SC)C(=O)NCc3ccno3)cc2c1` (stereo not shown) [Compound 4], the melting point came out at 115 °C. The inhibition at 200 ppm in the series with Phytophthora infestans is at least 80%. Further, the inhibition at 200 ppm in series [1] is at least 80%. Moreover, the inhibition at 200 ppm with Pythium ultimum is at least 80%.

For the compound `C#Cc1cnc2c(C)cc(OC(SC)C(=O)NC(C)(C)c3cc(C)ccn3)cc2c1` (stereo not shown) [Compound 17], the melting point was found to be 82 °C. Also, the inhibition at 200 ppm in the series on Plasmopara viticola was at least 80%. Moreover, in series [1], the inhibition at 200 ppm was at least 80%. In the series on Pythium ultimum, the inhibition at 200 ppm is at least 80%.

In turn, `C#Cc1cnc2ccc(OC(SC)C(=O)NC(C)(C)c3ncc(Cl)s3)cc2c1` (stereo not shown) [Compound 19] came in with a melting point of 125 °C. The inhibition at 200 ppm in the series on Plasmopara viticola was at least 80%. Further, in series [1], the inhibition at 200 ppm is at least 80%. Moreover, the inhibition at 200 ppm in the series on Pythium ultimum is at least 80%.

Turning to `C#Cc1cnc2c(F)cc(OC(SC)C(=O)NC(C)(C)c3cc(CC)on3)cc2c1` (stereo not shown) [Compound 21], the melting point was 133 °C. In the series with Phytophthora infestans, the inhibition at 200 ppm is at least 80%. Besides, the inhibition at 200 ppm with Plasmopara viticola was at least 80%. The inhibition at 200 ppm in series [1] was at least 80%. Also, the inhibition at 200 ppm in the series on Pythium ultimum was at least 80%.

The compound `C#Cc1cnc2c(Cl)cc(OC(SC)C(=O)NC(C)(C)c3cc(CC)on3)cc2c1` (stereo not shown) [Compound 22] had a melting point of 157 °C. The inhibition at 200 ppm in the series on Phytophthora infestans is at least 80%. In the series on Plasmopara viticola, the inhibition at 200 ppm is at least 80%. For the same compound, the inhibition at 200 ppm in series [1] was at least 80%. Further, the inhibition at 200 ppm in the series on Pythium ultimum is at least 80%.

As to `CCc1cc(C(C)(C)NC(=O)C(Oc2ccc3ncc(I)cc3c2)SC)no1` (stereo not shown) [Compound 23], the melting point is 125 °C. The inhibition at 200 ppm in the series on Phytophthora infestans is at least 80%. In addition, the inhibition at 200 ppm in the series on Plasmopara viticola is at least 80%. The inhibition at 200 ppm in series [1] was at least 80%. For the same compound, in the series with Pythium ultimum, the inhibition at 200 ppm is at least 80%.

`C#Cc1cnc2ccc(OC(SC)C(=O)NCc3ccccn3)cc2c1` (stereo not shown) [Compound 25] registered a melting point of 133 °C. Moreover, the inhibition at 200 ppm in the series with Phytophthora infestans was at least 80%. In addition, the inhibition at 200 ppm in series [1] is at least 80%. For the same compound, in the series with Pythium ultimum, the inhibition at 200 ppm was at least 80%.

Consider `C#Cc1cnc2c(C)cc(OC(SC)C(=O)NC(C)(C)c3ccc(Cl)nc3)cc2c1` (stereo not shown) [Compound 26], for which the melting point worked out at 120 °C. In the series with Plasmopara viticola, the inhibition at 200 ppm is at least 80%. In series [1], the inhibition at 200 ppm is at least 80%. Besides, the inhibition at 200 ppm in the series on Pythium ultimum was at least 80%.

For the compound `C#Cc1cnc2ccc(OC(SC)C(=O)NC(C)(C)c3nc(C)cs3)cc2c1` (stereo not shown) [Compound 28], the melting point was 97 to 99 °C and 97 °C. The inhibition at 200 ppm in the series on Phytophthora infestans was at least 80%. Besides, the inhibition at 200 ppm in the series with Plasmopara viticola was at least 80%. Moreover, in series [1], the inhibition at 200 ppm was at least 80%. In addition, in the series on Pythium ultimum, the inhibition at 200 ppm is at least 80%.

For the compound `C#Cc1cnc2ccc(OC(SC)C(=O)NCc3nccs3)cc2c1` (stereo not shown) [Compound 29], the melting point is 178 °C. The inhibition at 200 ppm in the series on Plasmopara viticola is at least 80%. In addition, the inhibition at 200 ppm in series [1] was at least 80%. In the series on Pythium ultimum, the inhibition at 200 ppm was at least 80%.

In turn, `C#Cc1cnc2ccc(OC(SC)C(=O)NCc3nc(C)cs3)cc2c1` (stereo not shown) [Compound 30] registered a melting point of 115 °C. Moreover, the inhibition at 200 ppm with Phytophthora infestans is at least 80%. The inhibition at 200 ppm in the series with Plasmopara viticola is at least 80%. Moreover, in series [1], the inhibition at 200 ppm is at least 80%. In addition, in the series with Pythium ultimum, the inhibition at 200 ppm is at least 80%.

For `C#Cc1cnc2ccc(OC(SC)C(=O)NCc3nc(C)c(C)s3)cc2c1` (stereo not shown) [Compound 31], the melting point was found to be 126 °C. Also, the inhibition at 200 ppm with Phytophthora infestans is at least 80%. Moreover, the inhibition at 200 ppm in series [1] is at least 80%. Besides, in the series on Pythium ultimum, the inhibition at 200 ppm was at least 80%.

As for `C#Cc1cnc2ccc(OC(SC)C(=O)NC(C)(C)c3ccccn3)cc2c1` (stereo not shown) [Compound 33], the inhibition at 200 ppm (in the series on Phytophthora infestans; with Plasmopara viticola; in series [2]; in series [1]; in the series on Pythium ultimum) was at least 80% throughout.

As for `C#Cc1cnc2c(C)cc(OC(SC)C(=O)NC(C)(C)c3ccon3)cc2c1` (stereo not shown) [Compound 39, 2-[(3-ethynyl-8-methyl-6-quinolyl)oxy]-N-(1-isoxazol-3-yl-1-methyl-ethyl)-2-methylsulfanyl-acetamide], the inhibition at 200 ppm (in the series on Phytophthora infestans; in the series on Plasmopara viticola; in series [2]; in series [1]; in the series with Pythium ultimum) was at least 80% each time.

As to `C#Cc1cnc2ccc(OC(SC)C(=O)NC(C)(C)c3ccon3)cc2c1` (stereo not shown) [Compound 44], the inhibition at 200 ppm (in the series on Phytophthora infestans; with Plasmopara viticola; in series [2]; in series [1]; in the series with Pythium ultimum) was at least 80% each time.

With `C#Cc1cnc2c(C)cc(OC(SC)C(=O)NC(CC)c3ccccn3)cc2c1` (stereo not shown) [Compound 60], the inhibition at 200 ppm (in series [2]; in series [1]; in the series with Pythium ultimum) was at least 80% in each case.

Take `C#Cc1cnc2c(Cl)cc(OC(SC)C(=O)NC(C)(C)c3cc(C)on3)cc2c1` (stereo not shown) [Compound 68]: the inhibition at 200 ppm (in the series on Plasmopara viticola; in series [2]; in series [1]; in the series with Pythium ultimum) was at least 80% in each case.

On to `C#Cc1cnc2c(C)cc(OC(SC)C(=O)NC(C)(C)c3nocc3C)cc2c1` (stereo not shown) [Compound 75], for which the inhibition at 200 ppm (in the series on Plasmopara viticola; in series [2]; in the series on Pythium ultimum) was at least 80% throughout.

With `C#Cc1cnc2ccc(OC(SC)C(=O)NC(C)(C)c3nocc3C)cc2c1` (stereo not shown) [Compound 78], the inhibition at 200 ppm (in the series on Plasmopara viticola; in series [2]; in series [1]; in the series on Pythium ultimum) was at least 80% in each case.

As to `C#Cc1cnc2cc(F)c(OC(SC)C(=O)NC(C)(C)c3cccc(C)n3)cc2c1` (stereo not shown) [Compound 111], the inhibition at 200 ppm (in series [2]; in series [1]; with Pythium ultimum) was at least 80% throughout.

For the compound `C#Cc1cnc2c(Cl)cc(OC(SC)C(=O)NC(C)(C)c3cccc(C)n3)cc2c1` (stereo not shown) [Compound 113], the inhibition at 200 ppm (in series [2]; in series [1]; in the series with Pythium ultimum) was at least 80% throughout.

As for `C#Cc1cnc2c(C)cc(OC(SC)C(=O)NCc3nccs3)cc2c1` (stereo not shown) [Compound 116], the inhibition at 200 ppm (in series [2]; in the series with Pythium ultimum) was at least 80% in each case.

On to `C#Cc1cnc2c(Cl)cc(OC(SC)C(=O)NCc3nccs3)cc2c1` (stereo not shown) [Compound 117], for which the inhibition at 200 ppm (in series [2]; in series [1]; with Pythium ultimum) was at least 80% each time.

Regarding `C=Cc1cnc2c(Cl)cc(OC(OC)C(=O)NC(C)(C)c3ccccn3)cc2c1` (stereo not shown) [Compound 134], the melting point was determined as 93 °C. Also, the inhibition at 200 ppm with Plasmopara viticola was at least 80%. In addition, the inhibition at 200 ppm in series [1] is at least 80%. In the series with Pythium ultimum, the inhibition at 200 ppm was at least 80%.

Take `C=Cc1cnc2c(F)cc(OC(CC)C(=O)NC(C)(C)c3nccs3)cc2c1` (stereo not shown) [Compound 137]: the melting point stood at 102 °C. Moreover, the inhibition at 200 ppm with Phytophthora infestans was at least 80%. For the same compound, in the series on Plasmopara viticola, the inhibition at 200 ppm was at least 80%. For the same compound, the inhibition at 200 ppm in series [1] was at least 80%. Further, the inhibition at 200 ppm in the series with Pythium ultimum is at least 80%.

On to `C=Cc1cnc2c(F)cc(OC(CC)C(=O)NC(C)(C)c3cc(CC)on3)cc2c1` (stereo not shown) [Compound 139], for which the melting point was found to be 114 °C. The inhibition at 200 ppm in the series on Phytophthora infestans is at least 80%. In the series on Plasmopara viticola, the inhibition at 200 ppm is at least 80%. Moreover, in the series on Pythium ultimum, the inhibition at 200 ppm was at least 80%.
